Source: patent US10556865B2, “Synergistic herbicidal composition containing certain pyridine or pyrimidine carboxylic acids and certain cereal and rice herbicides” (Dow AgroSciences, LLC, priority 2007, dated 2020)
Values joined by “and” are separate entries in the source; they are usually repeats but may differ in a detail not shown here. Equal entries are not always repeated. Where two headings read alike, the source gives them in different places.

Key:
Type in all cases: in vivo
Cyperus species (CYPSS) = experiment: Herbicidal mixtures for weed control in transplanted paddy rice (in-water application, visual % injury); details: for % Injury CYPES Ob: CYPES = Cyperus esculentus
Method in brief: (§1)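 Read-out: visual injury scored 0 (none) to 100 (complete kill) relative to untreated plants 3 weeks after treatment. Plants at the second or third true leaf stage in flooded mud received an injection of herbicide stock into the water; solvent-blank controls received the same acetone and crop oil levels.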

[1] = system: Echinochloa species (ECHSS); experiment: Herbicidal mixtures for weed control in transplanted paddy rice (in-water application, visual % injury after 3 weeks); details: for % Injury ECHCG Ob: ECHCG = Echinochloa crus-galli; for % Injury ECHOR Ob: ECHOR = Echinocloa oryzoides
Method in brief: as §1

[2] = system: scented mayweed (Matricaria chamomila L; MATCH); experiment: Postemergence herbicidal activity of mixtures in cereal crops (greenhouse, visual injury); details: Matricaria, post-emergence, read-out: MATCH Ob
Method in brief: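 Weeds grown in greenhouse (~14 h photoperiod, ~18/17 °C day/night) to second–third true leaf stage, sprayed postemergence with compound and second cereal herbicide alone or combined; solvent-blank controls. Injury scored visually after 20-22 days, 0–100% (complete kill); expected mixture activity = A+B−(A×B/100).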

[3] = Compound A TEA 35 g/ha alone (Table 111)
[4] = Compound A Methyl 17.5 g/ha alone

For O=C(O)c1c(Cl)ccc2cc(Cl)cnc12 [Quinclorac], the “% Injury CYPES Ob” value (Cyperus species (CYPSS); Quinclorac 140 g/ha alone (Compound A Methyl half)) was 0%, the “% Injury CYPES Ob” value (Cyperus species (CYPSS); Quinclorac 140 g/ha alone (Compound A TEA half)) was 0% and the “% Injury ECHCG Ob” value ([1]; Quinclorac 70 g/ha alone) was 0%. The “% Injury ECHCG Ob” value ([1]; Quinclorac 140 g/ha alone) was 0% and the “% Injury ECHOR Ob” value ([1]; Quinclorac 70 g/ha alone) was 0%.

For COc1c(Cl)ccc(-c2cc(N)c(Cl)c(C(=O)O)n2)c1F [Compound A TEA, 4-amino-3-chloro-6-(4-chloro-2-fluoro-3-methoxyphenyl)pyridine-2-carboxylic acid], the “% Injury CYPES Ob” value (Cyperus species (CYPSS); Compound A TEA 17.5 g/ha alone) was 30%, the “% Injury CYPES Ob” value (Cyperus species (CYPSS); Compound A TEA 17.5 g/ha alone (Table 112)) was 30% and the “% Injury CYPES Ob” value (Cyperus species (CYPSS); Compound A TEA 35 g/ha alone (Table 112)) was 70%. The “% Injury Ob” value (Cyperus species (CYPSS); CYPES, 35 g/ha alone) was 20% and 25%, the “% Injury Ob” value (Cyperus species (CYPSS); CYPES, 70 g/ha alone) was 50% and the “% Injury Ob” value (Cyperus species (CYPSS); CYPIR, 35 g/ha alone) was 10%. The “% Injury Ob” value (Cyperus species (CYPSS); CYPIR, 70 g/ha alone) was 20%, the “% Injury ECHCG Ob” value ([1]; Compound A TEA 17.5 g/ha alone) was 10% and the “% Injury ECHCG Ob” value ([1]; Compound A TEA 35 g/ha alone) was 80%. The “% Injury ECHCG Ob” value [1, 3] was 10%, the “% Injury Ob” value ([1]; ECHCG, 70 g/ha alone) was 50% and the “% Injury ECHOR Ob” value ([1]; Compound A TEA 17.5 g/ha alone (Table 113)) was 0%. The “% Injury ECHOR Ob” value [1, 3] was 10%, the “% Injury ECHOR Ob” value ([1]; Compound A TEA 35 g/ha alone (Table 113)) was 10% and the pest or weed control at 8.75 g/ha ([2]; 8.75 g/ha alone) was 71%. It also gave a pest or weed control at 8.75 g/ha ([2]; 8.75 g/ha) of 71%, a pest or weed control at 17.5 g/ha ([2]; 17.5 g/ha alone) of 76% and a pest or weed control at 17.5 g/ha ([2]; 17.5 g/ha) of 76%. For the same molecule, the pest or weed control at 35 g/ha ([2]; 35 g/ha alone) was 84%, the pest or weed control at 70 g/ha ([2]; 70 g/ha alone) was 94% and the pest or weed control at 140 g/ha ([2]; 140 g/ha) was 65%.

COC(=O)c1nc(-c2ccc(Cl)c(OC)c2F)nc(N)c1Cl [Compound B Methyl, 6-amino-5-chloro-2-(4-chloro-2-fluoro-3-methoxyphenyl)pyrimidine-4-carboxylic acid methyl ester] showed a pest or weed control at 8.75 g/ha ([2]; 8.75 g/ha alone) of 10%, a pest or weed control at 17.5 g/ha ([2]; 17.5 g/ha alone) of 10% and a pest or weed control at 35 g/ha ([2]; 35 g/ha alone) of 40%. The pest or weed control at 70 g/ha ([2]; 70 g/ha alone) was 45%.

In the case of COC(=O)c1nc(-c2ccc(Cl)c(OC)c2F)cc(N)c1Cl [Compound A Methyl, 4-amino-3-chloro-6-(4-chloro-2-fluoro-3-methoxyphenyl)pyridine-2-carboxylic acid methyl ester], the “% Injury CYPES Ob” value (Cyperus species (CYPSS); [4]) is reported as 50%, the “% Injury CYPES Ob” value (Cyperus species (CYPSS); Compound A Methyl 35 g/ha alone (Table 112)) is reported as 60% and the “% Injury Ob” value (Cyperus species (CYPSS); CYPES, 4.38 g/ha alone) is reported as 0%. For the same molecule, the “% Injury Ob” value (Cyperus species (CYPSS); CYPES, 8.75 g/ha alone) was 15%, the “% Injury Ob” value ([1]; ECHCG, 4.38 g/ha alone) was 0% and the “% Injury Ob” value ([1]; ECHCG, 17.5 g/ha alone) was 0%. For the same molecule, the “% Injury Ob” value ([1]; ECHCG, 35 g/ha alone) was 25%, the “% Injury Ob” value ([1]; ECHCO, 8.75 g/ha alone) was 0% and the “% Injury Ob” value ([1]; ECHCO, 17.5 g/ha alone) was 25%. For the same molecule, the “% Injury Ob” value ([1]; ECHCO, 35 g/ha alone) was 20%, the “% Injury ECHOR Ob” value [1, 4] was 0% and the “% Injury ECHOR Ob” value ([1]; Compound A Methyl 35 g/ha alone) was 10%. It also gave a pest or weed control at 17.5 g/ha ([2]; 17.5 g/ha) of 15%, a pest or weed control at 35 g/ha ([2]; 35 g/ha) of 68% and a pest or weed control at 70 g/ha ([2]; 70 g/ha) of 65%.
